Results taken from patent US6525200B1, “Multicyclic aromatic compounds and uses thereof” (Roche Diagnostics Corporation, priority 2000, dated 2003).
Counter-ions that a name gives are not always drawn. Like-named read-outs stand apart in the source and are kept apart here. Each block holds one compound with its values, some of them ahead of it.

How the values were obtained:
[1] = Fluorescence complexation studies of receptors with urea; assay type: binding
Experimental: (§1) UV-visible absorbance and fluorescence were examined. UV spectra were recorded on a Hewlett-Packard 8452A diode array UV-vis spectrophotometer, using a cell of 1 cm pathlength. Fluorescence spectra were recorded on a Photon Technology International QM-1 Steady state Fluorescence system. For UV-visible titrations stability constants (Ks) were calculated by fitting the data to the equation: Aobs=(εR[R]t+[R]t(εRG−εR)(Ks[G]t+Ks[R]t+1−sqrt((Ks[G]t+Ks[R]t+1)^2−4*[R]t Ks^2[G]t))/(2Ks[R]t))1 derived from Ks=[G][R]/[RG], [R]t=[R]+[RG], [G]t=[G]+[RG], and Aobs=(εR[R]+εRG[RG])1. The experimentally determined parameters are as follows: [R]t, the total concentration of a receptor; [G]t, the total concentration of a guest; Aobs, the observed absorbance; εR, the extinction coefficient of free receptor; 1, cell pathlength. The fitted parameters: εRG, the extinction coefficient of a receptor complex with a guest, Ks, the stability constant. For fluorescense titrations stability constants (Ks) were calculated by fitting as the data to the equation: Iobs=IR+(IRG−IR)(Ks[G]t+Ks[R]t+1−sqrt((Ks[G]t+Ks[R]t+1)^2−4*[R]tKs^2[G]t))/(2Ks[R]t) derived from Ks=[G][R]/[RG], [R]t=[R]+[RG], [G]t=[G]+[RG], and Iobs=IR+IRG. The experimentally determined parameters are as follows: [R]t, the total concentration of a receptor; [G]t, the total concentration of a guest; Iobs, the observed fluorescence intensity; IR, the fluorescence intensity of free receptor at a given concentration. The fitted parameters: IRG, the fluorescence intensity of a receptor complex with aguest at a given concentration, Ks, the stability constant. The calculations were performed using software Sigma Plot 1.02 (Jandel Scientific) with tolerance value 0.000100. The goodness of fit was evaluated by means of the Student's Paired t-Test (P-value>0.05).
A fluorescence titration study was performed as follows: a stock solution of the receptor (compound IB) was prepared with distilled water. Using the equipment described in Example 6, an excitation wavelength of 384 nm was used to obtain the spectrum for the uncomplexed receptor. Thereafter, four (4) aliquots of a urea stock solution were added with fluorescence being measured after each addition. A composite spectrum is show in FIG. 8.
Fluorescence was measured for the stock receptor solution using an excitation wavelength of 384 nm with a peak emission being observed at 450 nm. The stock urea solution was then added and fluorescence was measured again. A composite spectrum is shown in FIG. 10, with curve (a) representing the receptor without urea and curve (b) representing the complexation of the receptor with urea.
Fluorescence was also measured using a 25 μM stock solution of the receptor in distilled water. […] A urea solution was prepared and added to the receptor solution to measure quenching due to complexation.
Fluorescence was measured for a 20 μM stock solution of compound ID in a 98:2 (v/v) DMSO:water solvent system. An excitation wavelength of 407 nm was used with a peak emission being observed at 450 nm. A 0.17 M urea solution was then added and fluorescence measured again. A composite spectrum is shown in FIG. 11, with curve (a) representing the receptor (i.e., compound ID) without urea and curve (b) representing the complexation of the receptor with urea. […]
Fluorescence was measured for a 20 μM stock solution of compound IE in a 1:1 (v/v) DMSO:CHCl3 solvent system. […] Twenty equivalents of urea were then added and fluorescence measured again. […]

[2] = UV-visible titration of receptor with N-methylguanidine hydrochloride in distilled water; assay type: binding
Experimental: as §1
UV-visible titrations was performed by first preparaing a 30 μM receptor 5 (compound IA) stock solution in distilled water. […]
The following parameters were found from absorbance data measured at 410 nm: εR=6.50×10^3 cm^−1 M^−1, εRG=2.43×10^4 cm^−1 M^−1, Ks=1.0×10^5 M^−1.

[3] = Fluorescence quenching of receptor on addition of N-methylguanidinium; assay type: binding; conditions: 30 μM receptor in distilled water, excitation 388 nm, 2 equivalents of guest
Experimental: as §1, with “The fitted parameters: εRG, the extinction coefficient of a receptor complex with a guest, Ks, the stability constant.” left out, “The fitted parameters: IRG, the fluorescence intensity of a receptor complex with aguest at a given concentration, Ks, the stability constant. The calculations were performed using software Sigma Plot 1.02 (Jandel Scientific) with tolerance value 0.000100. The goodness of fit was evaluated by means of the Student's Paired t-Test (P-value>0.05).” left out

[4] = water or aqueous medium; cited from earlier work
[5] = in water; read-out: dissociation constant of the complex with methylguanidinium ion; cited from earlier work
[6] = in water, fluorescence quenching, read-out: Kd with urea

Compound: CCCCc1c2c(nc3c1CCc1cc4cc5c(nc4nc1-3)-c1nc3c(c(CCCC)c1CC5)CCc1cc4cccnc4nc1-3)-c1nc3ncccc3cc1CC2 [Compound 4]
- solubility in water / aqueous medium [4]: not soluble in water

Compound: O=C(O)c1ccc2c(n1)-c1nc3nc4c(cc3cc1CC2)CCc1ccc(C(=O)O)nc1-4 [Compound 3]
- solubility in water / aqueous medium [4]: soluble in water
- Kd [5]: 4.3 mM

Compound: COc1cc(N(C)C)c(OC)cc1CCNC(=O)c1ccc2c(n1)-c1nc3nc4c(cc3cc1CC2)CCc1ccc(C(=O)NCCNc2ccc3c5c(cccc25)C(=O)N(Cc2ccc(C(=O)OC(C)(C)C)cc2)C3=O)nc1-4 [Compound IE, 5,6,9,10-Tetrahydro[1,10]phenanthrolino[2,3-b][1,10]phenanthroline-2-(N-(4-aminoethyl-N′-(4-tert-butoxycarbonyltoluidyl)naphthyridine))carboxamide-13-(N-(2,5-dimethoxy-4-dimethylaminophenethyl))carboxamide]
- Kd ([1]; 1:1 (v/v) DMSO:CHCl3, 20 μM receptor, excitation 460 nm, read-out: Kd for urea): 16 mM

Second part, the compound after the results:

- Kd ([1]; 98:2 (v/v) DMSO:water, 20 μM receptor, excitation 407 nm, read-out: Kd for urea): 50 mM
Compound: O=C(O)c1ccc2c(n1)-c1nc3nc4c(cc3cc1CC2)CCc1ccc(-c2nc(O)cc(O)n2)nc1-4 [Compound ID, 5,6,9,10-Tetrahydro-13-(4,6-dihydroxypyrimidin-2-yl) [1,10]phenanthrolino [2,3-b][1,10]phenanthroline-2-carboxylic acid, potassium salt]

- stability constant Ks of complex with N-methylguanidinium ([2]; 30 μM receptor in distilled water, absorbance at 410 nm): 100000 M⁻¹
- binds N-methylguanidinium more strongly than the arginine cork ([2]; in water): 430 times
- Kd ([2]; in water, correlated from Ks, read-out: Kd of complex with N-methylguanidinium): 10 µM
- emission band at 410 nm, remaining share of original fluorescence intensity [3]: approximately 24%
Compound: O=C(O)c1ccc2c(n1)-c1nc3nc4c(cc3cc1CC2)CCc1cc2c(nc1-4)-c1nc3ncccc3cc1CC2 [Compound IA, 5,6,9,10,12,13-Hexahydro[1,10]phenanthrolino[2,3-b]pyrido[2′3′:2,3]quino[7,8-j][1,10]phenanthroline-2-carboxylic acid, potassium salt]

- Kd [1, 6]: < 17 mM
Compound: Nc1ccc2cc3c(nc2n1)-c1nc2c(cc1CC3)CCc1cc3cc4c(nc3nc1-2)-c1nc(C(=O)O)ccc1CC4 [Compound IB, 17-Amino-5,6,9,10,12,13-hexahydro[1,10]phenanthrolino[2,3-b]pyrido[2′3′:2,3]quino[7,8-j][1,10]phenanthroline-2-carboxylic acid, potassium salt]

- Kd ([1]; in DMSO, 30 μM receptor, excitation 384 nm, read-out: Kd for urea): 33 mM
- Kd [1, 6]: 13 mM
Compound: Nc1cccc(-c2ccc3c(n2)-c2nc4nc5c(cc4cc2CC3)CCc2ccc(C(=O)O)nc2-5)n1 [Compound IC, 5,6,9,10-Tetrahydro-13-(2-aminopyridin-6-yl)[1,10]phenanthrolino[2,3-b][1,10]phenanthroline-2-carboxylic acid]
